Reference: ChEMBL document CHEMBL1149026, “Ohioensins and pallidisetins: novel cytotoxic agents from the moss Polytrichum pallidisetum” (1994)
In brackets after ≈: the same amount, converted by molar mass.

Columns and labels:
Assay type in all cases: functional
Details in all cases: read-out: ED50 (the source's name)
RPMI-7951 = experiment: Cytotoxicity against human RPMI7951 cells
HT-29 = experiment: Cytotoxicity against human HT-29 cells
U-251 = experiment: Cytotoxicity against human U251 cells
A549 = experiment: Cytotoxicity against human A549 cells

SMILES	EC50 (RPMI-7951)	EC50 (HT-29)	EC50 (U-251)	EC50 (A549)
COc1cc(OC)c2c3c1C(=O)C[C@@H]1c4ccccc4O[C@@H](c4cccc(O)c4-2)[C@H]31 [1-O-METHYLOHIOENSIN B]	1 µg/mL (≈ 2.5 µM)	1 µg/mL (≈ 2.5 µM)	2 µg/mL (≈ 4.99 µM)	
COc1cc(OC)c2c3c1-c1c(O)cccc1[C@@H]1Oc4ccccc4[C@@H](C[C@@H]2O)[C@@H]31 [1-O-METHYLDIHYDROOHIOENSIN B]			0.8 µg/mL (≈ 1.99 µM)	
COc1cc(OC)c2c3c1-c1c(O)cccc1[C@@H]1Oc4ccccc4[C@@H](C[C@@H]2OC)[C@@H]31 [1,14-DI-O-METHYLDIHYDROOHIOENSIN B]	1 µg/mL (≈ 2.4 µM)			1 µg/mL (≈ 2.4 µM)
O=C(/C=C\c1ccccc1)c1cc(O)cc2c1CC(c1ccccc1)O2 (stereo not given) [PALLIDISETIN B]	2 µg/mL (≈ 5.84 µM)		2 µg/mL (≈ 5.84 µM)	
O=C(/C=C/c1ccccc1)c1cc(O)cc2c1CC(c1ccccc1)O2 (stereo not given) [PALLIDISETIN A]	1 µg/mL (≈ 2.92 µM)		1 µg/mL (≈ 2.92 µM)	
